In PubChem BioAssay (NCI):
Values joined by “and” are separate entries in the source; they are usually repeats but may differ in a detail not shown here. Identical values can stand only once.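 1) Cells in 96-well plates. 2) Compound, 48 h, 5 concentrations. 3) Linear interpolation between surrounding doses. 4) Unreached endpoint = highest concentration. GI50 = concentration required for 50% inhibition of growth. TGI: concentration producing complete growth inhibition.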

Assays:
Test in all cases: NCI-60 cell line screen, 48 h
EKVX NSCLC = test system: EKVX NSCLC
HCT-15 colon = test system: HCT-15 colon
HL-60(TB) leukemia = test system: HL-60(TB) leukemia
HT29 colon = test system: HT29 colon
IGROV1 ovarian = test system: IGROV1 ovarian
KM12 colon = test system: KM12 colon
LOX IMVI melanoma = test system: LOX IMVI melanoma
NCI-H23 lung = test system: NCI-H23 lung
SF-268 CNS = test system: SF-268 CNS
SK-MEL-28 melanoma = test system: SK-MEL-28 melanoma
U251 CNS = test system: U251 CNS
UACC-257 melanoma = test system: UACC-257 melanoma
UO-31 renal = test system: UO-31 renal
BT-549 breast = test system: BT-549 breast
HS 578T breast = test system: HS 578T breast
PC-3 prostate = test system: PC-3 prostate

Row | SMILES | TGI (EKVX NSCLC) [µM] | TGI (HCT-15 colon) [µM] | TGI (HL-60(TB) leukemia) | TGI (HT29 colon) [µM] | TGI (IGROV1 ovarian) | TGI (KM12 colon) [µM] | TGI (LOX IMVI melanoma) | TGI (NCI-H23 lung) [µM] | TGI (SF-268 CNS) [µM] | TGI (SK-MEL-28 melanoma) [µM] | TGI (U251 CNS) [µM] | TGI (UACC-257 melanoma) | TGI (UO-31 renal) | TGI (BT-549 breast) [µM] | TGI (HS 578T breast) | TGI (PC-3 prostate) [µM] | GI50 (EKVX NSCLC) [µM] | GI50 (HS 578T breast) [µM] | GI50 (IGROV1 ovarian) [µM] | GI50 (SK-MEL-28 melanoma) [µM]
1 | COC(=O)C1CCc2c1c(=O)n1c([nH]c3ccccc31)c2C#N (configuration not stated) | > 100 | > 100 | > 100 µM | > 100 | > 100 µM | > 100 | > 100 µM | > 100 | > 100 | > 100 | > 100 | > 100 µM | > 100 µM | – | – | – | – | – | – | –
2 | N#CC(C(=O)c1cccnc1Cl)c1nc2cc(C(F)(F)F)ccc2s1 (configuration not stated) | > 100 | > 100 | – | > 100 | > 100 µM | > 100 | > 100 µM | > 100 | > 100 | > 100 | > 100 | > 100 µM | > 100 µM | > 100 | – | – | – | – | – | –
3 | COC(=O)C1CCC(=O)N1CN(C(C)=O)c1ccccc1Cl (configuration not stated) | > 100 | > 100 | – | > 100 | > 100 µM | > 100 | > 100 µM | > 100 | > 100 | > 100 | > 100 | > 100 µM | > 100 µM | – | > 100 µM | > 100 | – | – | – | –
4 | COP(=O)(OC)C(=O)N1N(c2ccc([N+](=O)[O-])cc2)C(=O)C(C)NC1(NNc1ccc([N+](=O)[O-])cc1)P(=O)(OC)OC (configuration not stated) | > 100 | > 100 | > 100 µM | – | > 100 µM | > 100 | > 100 µM | > 100 | > 100 | > 100 | > 100 | > 100 µM | > 100 µM | – | – | – | – | – | – | –
5 | Nc1nc2c3nc(Nc4ccccc4)sc3nc(=S)n2c2sc(Nc3ccccc3)nc12 | > 100 | > 100 | > 100 µM | > 100 | > 100 µM | – | – | > 100 | 56.5 | > 100 | > 100 | > 100 µM | > 100 µM | – | – | – | – | – | – | –
6 | S=c1[nH]nc(CNc2ccc(-c3n[nH]c(=S)n3-c3ccc(Cl)cc3)cc2)n1-c1ccc(Cl)cc1 | > 100 | > 100 | – | 66.7 | 47.1 µM | 44 | – | > 100 | > 100 | 64.2 | > 100 | > 100 µM | 32.4 µM | > 100 | – | > 100 | – | – | – | –
7 | CC(Nc1ncc2c(n1)-c1ccccc1OC2)C(=O)O (configuration not stated) | > 100 | > 100 | 26.1 µM | > 100 | > 100 µM | > 100 | > 100 µM | > 100 | > 100 | > 100 | > 100 | > 100 µM | > 100 µM | – | > 100 µM | > 100 | – | – | – | –
8 | CC1(C)O[C@@H]([C@H](O)CO)[C@H](O)[C@@H](C2SCCCS2)O1 | > 100 | > 100 | – | > 100 | > 100 µM | > 100 | – | > 100 | > 100 | > 100 | > 100 | > 100 µM | > 100 µM | > 100 | – | > 100 | – | – | – | –
9 | N#Cc1cccc2c1Nc1ccccc1S2 | > 100 | > 100 | > 100 µM | > 100 | > 100 µM | > 100 | > 100 µM | > 100 | > 100 | > 100 | > 100 | > 100 µM | > 100 µM | – | – | – | – | – | – | –
10 | O=[N+]([O-])c1cccc2nc3ccccc3c(NCCCn3ccnc3[N+](=O)[O-])c12 | – | – | 0.0168 µM and 0.0332 µM | 0.00124 | 0.212 µM and 0.412 µM | – | 0.13 µM and 0.0216 µM | 0.023 | – | – | 0.00178 | 0.0208 µM and 0.0207 µM | 0.00595 µM and 0.038 µM | – | 0.0899 µM and 0.0415 µM | 0.0236 | 76.4 | 0.0109 | 0.0419 | 45.4
11 | CCN(CC)c1cccc2c1/C(=N/O)CCCC2 | > 100 | > 100 | > 100 µM | > 100 | – | > 100 | > 100 µM | > 100 | > 100 | > 100 | > 100 | > 100 µM | > 100 µM | – | – | – | – | – | – | –
12 | CC(C)(O)/C=C\P(=O)(O)O | > 100 | > 100 | – | > 100 | > 100 µM | > 100 | > 100 µM | > 100 | > 100 | > 100 | > 100 | > 100 µM | – | – | > 100 µM | > 100 | – | – | – | –
13 | COc1ccc(C2=C(Cl)c3cc(OC)c(OC)cc3C2OC)cc1OC (configuration not stated) | > 100 | > 100 | > 100 µM | > 100 | > 100 µM | > 100 | > 100 µM | > 100 | > 100 | > 100 | – | > 100 µM | > 100 µM | – | – | – | – | – | – | –
14 | CC(C)OP(=O)(OC(C)C)/C(Cl)=N/Nc1ccc([N+](=O)[O-])cc1 | > 100 | > 100 | > 100 µM | – | – | > 100 | > 100 µM | > 100 | > 100 | > 100 | > 100 | > 100 µM | > 100 µM | – | – | – | – | – | – | –
15 | CCN(CC)C(=O)Cc1c(C(=O)N(CC)CC)c(=O)nc2sccn12 | > 100 | > 100 | > 100 µM | > 100 | > 100 µM | > 100 | > 100 µM | > 100 | > 100 | > 100 | > 100 | > 100 µM | > 100 µM | – | – | – | – | – | – | –
